pIC50: −log10 of the molar value.
What was measured:
[1] = tested on: RSV A2 strain; test: Assessment of RSV induced CPE in HEp2 cells (RSV A2 strain); format: cell-based; conditions: human respiratory syncytial virus, HEp2 cells; for pIC50: HEp-2, 120 h, 1 MOI, 5 days, read-out: RSV A2 CPE IC50; for inhibition at 0.01 µg/mL: HEp-2, Inhibition (%) at 0.01 μg/mL
Method in brief: (§1)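 HEp2 cells were infected at MOI 1 with RSV A2 or RSV B Washington, with compound added at the same time (0.5% DMSO final). Incubation was 5 days for A2 and 6 days for B, then viability was read by resazurin fluorescence (545/590 nm) after 6 h. IC50, IC75 and IC90 came from concentration-response curves.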

[2] = tested on: RSV B Washington strain; test: Assessment of RSV induced CPE in HEp2 cells (RSV B Washington strain); format: cell-based; conditions: human respiratory syncytial virus, HEp2 cells; for pIC50: HEp-2, 144 h, 1 MOI, 6 days, read-out: RSV B CPE IC50; for inhibition at 1 µg/mL / inhibition at 0.1 µg/mL: HEp-2; for inhibition at 1 µg/mL: Inhibition (%) at 1 μg/mL, read-out: RSV B CPE % Inhibition; for inhibition at 0.1 µg/mL: Inhibition (%) at 0.1 μg/mL
Method in brief: as §1

[3] = tested on: RSV A2 F-protein expression in BEAS2B bronchial epithelial cells; test: Assessment of RSV F protein expression in BEAS2B bronchial epithelial cells; format: cell-based; conditions: human respiratory syncytial virus, BEAS-2B, 72 h, read-out: RSV A2 F-protein IC50 (nM)
Description: Assessment of RSV F Protein Expression in BEAS2B Bronchial Epithelial Cells
An early event which follows the infection of epithelial cells by RSV is the expression of RSV F-protein on the cells' surface. BEAS2B cells (SV40-immortalised human bronchial epithelial cell line) were grown in 96 well plates. Once more than 70% confluent, cells were infected with RSV A2 (#0709161v, NCPV, Public Health England, Wiltshire) at an MOI of 0.01 in clear RPMI-1640 medium (Life technologies, Paisley, UK) with 2% FBS (Life technologies, Paisley, UK), and incubated for 3 days (37° C./5% CO2).
Supernatant was aspirated and the cells were fixed with 4% formaldehyde (100 μL in PBS solution) for 20 min, washed 3 times with washing buffer (200 μL; PBS containing 0.05% Tween-20) and incubated with blocking solution (100 μL; 5% Marvel milk in PBS) for 1 hr. Cells were then washed with washing buffer (200 μL) and incubated for 1 hr at 37° C. with anti-RSV (2F7; mouse monoclonal, lot 160290, Cat. No. ab43812, Abcam plc, Cambridge, UK) F-fusion protein antibody (50 μL; prepared at a 1:1000 dilution in 5% milk/PBS-tween). After washing, cells were incubated with an HRP-conjugated anti-mouse IgG antibody (50 μL prepared at a 1:2000 dilution in 5% milk in PBS; lot 00095437, Cat.No. P0447, Dako UK Ltd, Cambridgeshire, UK) for 1 hr. Cells were washed twice with washing buffer and once with PBS. TMB substrate (100 μL; substrate reagent pack lot 320436, Cat. No. DY999, R&D Systems, Inc. Abingdon, UK) was then added and the reaction was stopped by the addition of aq sulfuric acid (50 μL; 2N). The resultant signal was determined colourimetrically (OD: 450 nm with a reference wavelength of 655 nm) in a microplate reader (Multiskan FC®, ThermoFisher Scientific). Cells were then washed and 1% crystal violet solution (50 μL; lot SLB4576, Cat. No. HT90132-1L, Sigma-Aldrich) was applied for 30 min. After washing with PBS (200 μL) 3 times, 1% SDS (100 μL) was added to each well, and plates were shaken lightly for 1 hr prior to reading the absorbance at 595 nm. The measured OD450-655 readings were corrected for cell number by dividing the OD450-655 by the OD595 readings. The percentage inhibition for each well was calculated and the IC50 value derived from the concentration-response curve generated for each test compound.

[4] = Cell viability: resazurin assay; format: cell-based, human; conditions: human, HEp2 cells
Method in brief: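 HEp2 cells in 5% FBS DMEM exposed to compounds (0.5% DMSO final) for 5 days at 37 °C/5% CO2, then resazurin added for 6 h; fluorescence read at 545/590 nm. Percent viability loss calculated versus 0.5% DMSO vehicle, with increases shown as negative values; CC50 taken from concentration-response curves where appropriate.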

| SMILES | pIC50 [1] | inhibition at 0.01 µg/mL [1] | pIC50 [2] | inhibition at 1 µg/mL [2] | IC50 [3] | CC50 at 5 days [4] | inhibition at 0.1 µg/mL [2] |
| --- | --- | --- | --- | --- | --- | --- | --- |
| O=C(Nc1c(F)cccc1Cl)c1cc2c(s1)-c1ccccc1N(C(=O)c1ccc(NC(=O)c3cc(C4CC4)cnc3N3CC4(CCOCC4)C3)cc1)CC2 [Example 65, N-(2-chloro-6-fluorophenyl)-6-(4-(5-cyclopropyl-2-(7-oxa-2-azaspiro[3.5]nonan-2-yl)nicotinamido)benzoyl)-5,6-dihydro-4H-benzo[b]thieno[2,3-d]azepine-2-carboxamide] | 9.89 | 100% | 8.80 | 100% | 0.59 nM | > 13100 nM | – |
| O=C(Nc1c(F)cccc1F)c1cc2c(s1)-c1ccccc1N(C(=O)c1ccc(NC(=O)c3cc4c(nc3N3CC5(CCOCC5)C3)CCC4)cc1)CC2 [Example 75, 6-(4-(2-(7-oxa-2-azaspiro[3.5]nonan-2-yl)-6,7-dihydro-5H-cyclopenta[b]pyridine-3-carboxamido)benzoyl)-N-(2,6-difluorophenyl)-5,6-dihydro-4H-benzo[b]thieno[2,3-d] azepine-2-carboxamide] | 10.00 | 84% | 8.64 | 100% | 0.25 nM | > 13400 nM | – |
| O=C(Nc1c(F)cccc1Cl)c1cc2c(s1)-c1ccccc1N(C(=O)c1ccc(NC(=O)c3cc4c(nc3N3CC5(CCOCC5)C3)CCC4)cc1)CC2 [Example 76, 6-(4-(2-(7-oxa-2-azaspiro[3.5]nonan-2-yl)-6,7-dihydro-5H-cyclopenta[b]pyridine-3-carboxamido)benzoyl)-N-(2-chloro-6-fluorophenyl)-5,6-dihydro-4H-benzo[b]thieno[2,3-d] azepine-2-carboxamide] | 9.82 | 100% | 8.85 | 100% | 0.32 nM | > 13100 nM | – |
| O=C(Nc1c(F)cccc1Cl)c1cc2c(s1)-c1ccccc1N(C(=O)c1ccc(NC(=O)c3cc4c(nc3N3CC5(CCOCC5)C3)CCCC4)cc1)CC2 [Example 81, 6-(4-(2-(7-oxa-2-azaspiro[3.5]nonan-2-yl)-5,6,7,8-tetra-hydroquinoline-3-carboxamido)benzoyl)-N-(2-chloro-6-fluorophenyl)-5,6-dihydro-4H-benzo[b]thieno[2,3-d]azepine-2-carboxamide] | 9.74 | 77% | 7.99 | – | 0.13 nM | > 12900 nM | 100% |
| O=C(Nc1c(F)cccc1Cl)c1cc2c(s1)-c1ccccc1N(C(=O)c1ccc(NC(=O)c3cc4ccccc4nc3N3CC4(CCOCC4)C3)cc1)CC2 [Example 87, 6-(4-(2-(7-oxa-2-azaspiro[3.5]nonan-2-yl)quinoline-3-carboxamido)benzoyl)-N-(2-chloro-6-fluorophenyl)-5,6-di-hydro-4H-benzo[b]thieno[2,3-d]azepine-2-carboxamide] | 9.27 | 94% | 7.80 | – | 0.49 nM | > 12900 nM | 100% |

From patent US10189863B2, “5,6-dihydro-4H-benzo[b]thieno-[2,3-d]azepine derivatives” (PULMOCIDE LIMITED, priority 2014, dated 2019)
